From patent US5695738A, “Steroidal C-glycosides” (Glycomed Incorporated, priority 1995, dated 1997)

Test system: murine skin inflammation; swelling caused by AA
Assay: arachidonic acid (AA), murine skin inflammation (ear) model, topical administration
Format: in vivo
Conditions: for percent inhibition of swelling caused by AA alone: 10 uL of 100 mg/mL in CHCl3 (lithocholic acid in CHCl3:CH3OH 1:1) applied to the ear immediately after AA, 90 minutes; for % Inhibition of Swelling: topical, 1 mg applied to the ear immediately after arachidonic acid, 6 mm ear disk weighed at 90 minutes, average of two experiments (Table 1)
Experimental: Briefly, the compounds at an appropriate concentration are dissolved in a suitable solvent, and applied to a rodent ear immediately following application of arachidonic acid (AA). A control of AA alone is run. About 90 minutes later, a 6 mm disk of each ear is removed and weighed. The percent inhibition of swelling caused by AA alone is calculated for the steroidal C-glycoside derivatives of the invention and compared to other steroids.
Using the arachidonic acid (AA), murine skin inflammation model, described by Harris, R. R. et al. (Skin Pharmacol 1990; 3:29-40) the anti-inflammatory activity of (5) was tested. For comparison, Lithocholic acid and Methyl lithocholate, were also tested. Compounds were dissolved at 100 mg/mL in CHCl3, except for lithocholic acid which was dissolved in CHCl3 :CH3 OH (1:1); 10 uL of each compound was applied to the ear immediately following arachidonic acid (AA). AA was applied alone, or followed immediately with methyl lithocholate, ketone (12) alkene (11) or compound (5). 90 minutes later, a 6 mm disk of each ear was removed and weighed.

Compound	percent inhibition of swelling caused by AA alone	% Inhibition of Swelling [%]
COC(=O)CC[C@@H](C)[C@H]1CC[C@H]2[C@@H]3CC[C@@H]4C[C@H](O)CC[C@]4(C)[C@H]3CC[C@]12C [methyl lithocholate]	about 17.5%	17.5
C[C@H](CCC(=O)O)[C@H]1CC[C@H]2[C@@H]3CC[C@@H]4C[C@H](O)CC[C@]4(C)[C@H]3CC[C@]12C [Lithocholic acid]	~22.5%	30.5
COC(=O)CC[C@@H](C)[C@H]1CC[C@H]2[C@@H]3CC[C@@H]4C[C@H](OCC(O)(CO)C[C@@H]5O[C@@H](C)[C@@H](O)[C@@H](O)[C@@H]5O)CC[C@]4(C)[C@H]3CC[C@]12C (stereo partly drawn) [compound (5), 1-[3-O-(Lithocholic acid)]-2-(alpha-L-C-methylfucopyranose)-2',3'-propanediol methyl ester]	about 48.5%	48.5
